# Reference: PMC3669377, “Purification, Cloning, Characterization and Essential Amino Acid Residues Analysis of a New ι-Carrageenase from Cellulophaga sp. QY3” (PLoS ONE, 2013)
# Molecular target: T1, CgiA_Ce (Cellulophaga sp. QY3, UniProt M1EU02)
# T1 construct: gene cgiA; native secreted enzyme purified from culture supernatant; mature, putative signal peptide M1-S41 removed (precursor 492 residues); monomer
# T1 sequence (M1EU02 42-492): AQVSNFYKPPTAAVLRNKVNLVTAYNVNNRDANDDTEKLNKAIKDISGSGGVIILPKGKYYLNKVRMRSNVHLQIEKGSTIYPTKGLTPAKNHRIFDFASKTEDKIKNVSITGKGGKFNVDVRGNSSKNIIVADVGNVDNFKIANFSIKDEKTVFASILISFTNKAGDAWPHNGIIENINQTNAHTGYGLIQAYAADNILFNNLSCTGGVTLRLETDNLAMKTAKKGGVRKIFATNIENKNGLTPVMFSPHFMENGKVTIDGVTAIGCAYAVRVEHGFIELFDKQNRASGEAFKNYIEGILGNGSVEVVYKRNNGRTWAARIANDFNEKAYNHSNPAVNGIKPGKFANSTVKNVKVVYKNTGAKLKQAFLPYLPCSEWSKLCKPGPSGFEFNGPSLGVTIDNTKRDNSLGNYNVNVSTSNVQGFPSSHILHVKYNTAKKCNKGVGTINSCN
# Assay: FACE analysis of hydrolysis products
# Assay type: biochemical
# Conditions: pH 7.0, 45°C; 10 mg/ml substrate; minimum substrate; products neo-iota-carrabiose and neo-iota-carratetraose
compound,measurement,value
"O=S(=O)(O)O[C@@H]1[C@H](O[C@H]2O[C@@H]3CO[C@@H]([C@H]3O[C@@H]3O[C@H](CO)[C@H](OS(=O)(=O)O)[C@H](O[C@H]4O[C@@H]5CO[C@@H]([C@H]5O)[C@H]4OS(=O)(=O)O)[C@H]3O)[C@H]2OS(=O)(=O)O)[C@@H](O)[C@H](O[C@@H]2[C@@H]3OC[C@H]2O[C@H](O[C@H]2[C@@H](OS(=O)(=O)O)[C@@H](CO)OC(O)[C@@H]2O)[C@@H]3OS(=O)(=O)O)O[C@@H]1CO (stereo partly shown) [DP6, neo-ι-carrahexaose]",FACE analysis of hydrolysis products,Neo-ι-carrahexaose was the shortest chain that can be recognized and cleaved by CgiA_Ce
